Assay [1] addresses T1, histidine tagged recombinant human full-length Bruton Agammaglobulinemia Tyrosine Kinase (Btk) (Homo sapiens, UniProt Q06187).
T1 construct: recombinant human full-length Bruton Agammaglobulinemia Tyrosine Kinase (Btk); histidine tag
Nature of the assay: Btk kinase inhibition assay (fluorescence polarization, KinEASE FP Fluorescein Green). In kind it is biochemical. Conditions: 10 μM ATP, 250 μM substrate, 60 minutes, room temperature; Ki from IC50 by Cheng-Prusoff; read-out: ki50 (nM), Inhibition of Btk. Summed up:
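His-tagged recombinant human kinase (full-length Btk, or Lck) reacted 60 min at room temperature with 250 μM substrate and 10 μM ATP; stopped with EDTA and detection reagents, read by fluorescence polarization. IC50 from non-linear dose-response fit, converted to Ki by Cheng-Prusoff using each enzyme's measured ATP Km.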
(In general: In fluorescence polarisation assays a small probe gives low polarisation when free and higher when bound to something large.)

Another assay deals with mouse splenocytes. Nature of the assay: Splenic cell proliferation assay (anti-IgM stimulated B cell proliferation, Cell Titer-Glo). Type of assay: cell-based. Conditions: Splenocyte; CD1 mouse splenocytes, 1 h pre-treatment, 2.5 ug/ml anti-IgM F(ab')2 for 72 h; read-out: EC50 (nM), Inhibition of splenic cell proliferation. Summed up:
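Splenocytes from 6-week male CD1 mice, depleted of adherent cells, were pre-treated in triplicate with compound curves up to 10,000 nM for 1 h. B-cell proliferation was then driven by 2.5 ug/ml anti-IgM F(ab′)2 for 72 h, read by Cell Titer-Glo. EC50 was calculated relative to vehicle controls.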

Assay [2] addresses T2, histidine tagged recombinant Human Lymphocyte-Specific Protein Tyrosine Kinase (Lck) (Homo sapiens, UniProt P06239).
T2 construct: histidine tag
In words: Lck kinase inhibition assay (fluorescence polarization, KinEASE FP Fluorescein Green). In kind it is biochemical. The note with it: 10 μM ATP, 250 μM substrate, 60 minutes, room temperature; Ki from IC50 by Cheng-Prusoff. How it is done:
Kinase Binding Btk and Lck Kinase Inhibition Assay
Fluorescence polarization-based kinase assays were performed in 384 well-plate format using histidine tagged recombinant human full-length Bruton Agammaglobulinemia Tyrosine Kinase (Btk) or histidine tagged recombinant Human Lymphocyte-Specific Protein Tyrosine Kinase (Lck) and a modified protocol of the KinEASE™ FP Fluorescein Green Assay supplied from Millipore. Kinase reaction were performed at room temperature for 60 minutes in presence of 250 μM substrate, 10 μM ATP and variable test article concentrations. The reaction was stopped with EDTA/kinease detection reagents and the polarization measured on a Tecan 500 instrument. From the dose-response curve obtained, the IC50 was calculated using Graph Pad Prisms® using a non-linear fit curve. The Km for ATP on each enzyme was experimentally determined and the Ki values calculated using the Cheng-Prusoff equation (see: Cheng Y, Prusoff W H. (1973) Relationship between the inhibition constant (K1) and the concentration of inhibitor which causes 50 percent inhibition (I50) of an enzymatic reaction”. Biochem Pharmacol 22 (23): 3099-108).
ki values are reported in Tables 2 and 3: • a—Less than 100 nM; b—less than 1000 nM; c—more than 1000 nM

T1 sequence (Q06187 whole entry): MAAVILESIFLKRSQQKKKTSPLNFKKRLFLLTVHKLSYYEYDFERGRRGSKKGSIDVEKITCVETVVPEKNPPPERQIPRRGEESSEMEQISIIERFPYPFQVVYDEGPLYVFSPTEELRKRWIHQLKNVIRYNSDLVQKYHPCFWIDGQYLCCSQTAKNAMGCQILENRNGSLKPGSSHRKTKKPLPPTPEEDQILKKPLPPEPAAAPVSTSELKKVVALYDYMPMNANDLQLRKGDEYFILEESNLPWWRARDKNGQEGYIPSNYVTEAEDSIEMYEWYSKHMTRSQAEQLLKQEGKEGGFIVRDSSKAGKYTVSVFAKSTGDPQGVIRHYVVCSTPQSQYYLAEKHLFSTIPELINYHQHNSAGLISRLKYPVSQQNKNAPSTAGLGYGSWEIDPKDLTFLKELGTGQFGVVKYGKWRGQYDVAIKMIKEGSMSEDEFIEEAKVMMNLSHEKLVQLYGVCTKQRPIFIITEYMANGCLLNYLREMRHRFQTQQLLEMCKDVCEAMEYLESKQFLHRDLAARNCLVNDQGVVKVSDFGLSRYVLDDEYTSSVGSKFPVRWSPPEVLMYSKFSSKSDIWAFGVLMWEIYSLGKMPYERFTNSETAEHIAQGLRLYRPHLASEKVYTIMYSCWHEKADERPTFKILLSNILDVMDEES
T2 sequence (P06239 whole entry): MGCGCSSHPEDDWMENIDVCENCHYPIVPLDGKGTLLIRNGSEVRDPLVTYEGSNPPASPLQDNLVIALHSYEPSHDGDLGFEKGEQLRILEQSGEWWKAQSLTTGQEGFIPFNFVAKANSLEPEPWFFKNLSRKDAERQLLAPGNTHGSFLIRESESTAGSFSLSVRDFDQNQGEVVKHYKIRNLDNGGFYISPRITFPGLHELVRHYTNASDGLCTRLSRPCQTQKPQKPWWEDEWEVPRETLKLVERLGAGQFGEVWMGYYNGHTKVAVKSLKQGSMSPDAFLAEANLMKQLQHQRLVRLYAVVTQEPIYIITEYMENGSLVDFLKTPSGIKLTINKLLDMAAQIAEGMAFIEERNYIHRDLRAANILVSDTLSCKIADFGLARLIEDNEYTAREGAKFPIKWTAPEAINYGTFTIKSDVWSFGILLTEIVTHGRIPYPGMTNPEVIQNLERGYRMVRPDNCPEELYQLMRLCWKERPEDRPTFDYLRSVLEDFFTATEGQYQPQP

Consider `COc1cccc(Oc2ccc(-n3c4c(c5ncnc(N)c53)C(C)OC4)cc2)c1` (stereo not drawn) [Compound 25], for which the Ki in assay [1] and in assay [2] was less than 100 nM throughout. Further, in the assay with mouse splenocytes, the EC50 was 100 to 1000 nM.

With `COc1ccccc1Oc1ccc(-n2c3c(c4ncnc(N)c42)C(C)OC3)cc1` (stereo not drawn) [Compound 28], the Ki in assay [1] and in assay [2] was less than 1000 nM in each case. The EC50 in the assay on mouse splenocytes was greater than 1000 nM.

In the case of `Nc1ncnc2c3c(n(-c4ccc(Oc5ccc(Cl)cc5)cc4)c12)CCC3` [Compound 4], the Ki in assay [1] and in assay [2] was less than 1000 nM throughout. In addition, in the assay with mouse splenocytes, the EC50 is greater than 1000 nM.

Take `CC1OCc2c1c1ncnc(N)c1n2-c1ccc(Oc2ccccc2)cc1` (stereo not drawn) [Compound 20]: the Ki in assay [1] and in assay [2] was less than 100 nM in each case. The EC50 with mouse splenocytes lay within 100 to 1000 nM.

As to `CC1OCc2c1c1ncnc(N)c1n2-c1ccc(Oc2cccc(OCc3ccncc3)c2)cc1` (stereo not drawn) [Compound 54], the Ki in assay [1] and in assay [2] was less than 100 nM throughout. Moreover, the EC50 in the assay with mouse splenocytes is greater than 1000 nM.

Take `Nc1ncnc2c3c(n(-c4ccc(Oc5ccccc5)cc4)c12)CCC3` [Compound 1]: the Ki in assay [1] is less than 1000 nM; in assay [2], less than 100 nM. For the same molecule, the EC50 with mouse splenocytes is greater than 1000 nM.

As for `CC1OCc2c1c1ncnc(N)c1n2-c1ccc(Oc2cccc(OCc3ccccc3)c2)cc1` (stereo not drawn) [Compound 43], the Ki in assay [1] and in assay [2] was less than 100 nM throughout. Further, the EC50 with mouse splenocytes is 100 to 1000 nM.

Regarding `CC1OCc2c1c1ncnc(N)c1n2-c1ccc(Oc2cccc(C#N)c2)cc1` (stereo not drawn) [Compound 37], the Ki in assay [1] and in assay [2] was greater than 1000 nM in each case. Moreover, in the assay on mouse splenocytes, the EC50 was greater than 1000 nM.

Take `Nc1ncnc2c3c(n(-c4ccc(Oc5ccccc5)cc4)c12)COC3CCCOCc1ccccc1` (stereo not drawn) [Compound 26]: the figures for the Ki in assay [1] and in assay [2] were greater than 1000 nM and less than 1000 nM, respectively. In the assay on mouse splenocytes, the EC50 is greater than 1000 nM.

In the case of `CC1OCc2c1c1ncnc(N)c1n2-c1ccc(Oc2ccccc2Cl)cc1` (stereo not drawn) [Compound 33], the Ki in assay [1] was less than 1000 nM; in assay [2], less than 100 nM. Also, the EC50 in the assay on mouse splenocytes was in the range of 100 to 1000 nM.

As to `Nc1ncnc2c3c(n(-c4ccc(Oc5ccccc5)cc4)c12)COC3CCCO` (stereo not drawn) [Compound 27], the values for the Ki in assay [1] and in assay [2] were less than 1000 nM and less than 100 nM, respectively. Moreover, in the assay with mouse splenocytes, the EC50 was greater than 1000 nM.

`CC1OCc2c1c1ncnc(N)c1n2-c1ccc(Oc2cccc(O)c2)cc1` (stereo not drawn) [Compound 44]: the Ki in assay [1] and in assay [2] was less than 100 nM in each case. Further, the EC50 with mouse splenocytes is greater than 1000 nM.

Regarding `CC1OCc2c1c1ncnc(N)c1n2-c1ccc(Oc2cccc(OCCOc3ccc(Cl)cc3)c2)cc1` (stereo not drawn) [Compound 50], the Ki in assay [1] and in assay [2] was less than 100 nM each time. The EC50 with mouse splenocytes was greater than 1000 nM.

With `CC1OCc2c1c1ncnc(N)c1n2-c1ccc(Oc2ccccc2)c(Cl)c1` (stereo not drawn) [Compound 39], the Ki in assay [1] was less than 1000 nM; in assay [2], less than 100 nM. Besides, the EC50 with mouse splenocytes is greater than 1000 nM.

For `COc1cc(-n2c3c(c4ncnc(N)c42)CCC3)ccc1Oc1ccccc1` [Compound 23], the Ki was less than 1000 nM in assay [1] and less than 100 nM in assay [2]. The EC50 in the assay on mouse splenocytes was greater than 1000 nM.

`CC1OCc2c1c1ncnc(N)c1n2-c1ccc(Oc2cccc(OCc3ccc(C(F)(F)F)cc3)c2)cc1` (stereo not drawn) [Compound 57]: the Ki in assay [1] and in assay [2] was less than 100 nM throughout. Besides, in the assay on mouse splenocytes, the EC50 was greater than 1000 nM.

With `Nc1ncnc2c3c(n(-c4ccc(Oc5ccccc5)cc4)c12)CNC3` [Compound 7], the Ki is greater than 1000 nM in assay [1] and less than 1000 nM in assay [2]. For the same molecule, the EC50 in the assay on mouse splenocytes is greater than 1000 nM.

Turning to `CC1OCc2c1c1ncnc(N)c1n2-c1ccc(Oc2cccc(Cl)c2)cc1` (stereo not drawn) [Compound 31], the values for the Ki in assay [1] and in assay [2] were less than 1000 nM and less than 100 nM, respectively. Further, the EC50 with mouse splenocytes was 100 to 1000 nM.

Values taken from patent publication US9624239B2, “Protein kinase inhibitors” (Pharmascience Inc., priority 2011, dated 2017).
